Laboratory results taken from ChEMBL document CHEMBL1201862, “PubChem BioAssay data set” (2004).
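The compound was tested at five concentrations on cells cultured in 96-well plates, with a 48-hour exposure period. Here, GI50 denotes the concentration required for 50% inhibition of growth.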 Activity calls are given as the source filed them. No stated cut-off is given here; in the data, active = GI50 up to about 1.1 µM and inactive = higher.

Legend:
Experiment in all cases: DTP human tumour cell line panel, 48 h
786-0 = test system: 786-0
BT-549 = test system: BT-549
XF498 = test system: XF498
LXFL 529 = test system: LXFL 529
KM-20L2 = test system: KM-20L2
DMS-273 = test system: DMS-273
RXF 631 = test system: RXF 631
DLD-1 = test system: DLD-1
HOP-18 = test system: HOP-18

For `c1ccc(CN2CCC3(CC2)SSC2(CCN(Cc4ccccc4)CC2)SS3)cc1`, the GI50 (786-0) was > 100 µM (inactive) and the GI50 (BT-549) was > 100 µM (inactive).
With `O=C(NN1C(=O)C(Cl)C1c1cccc([N+](=O)[O-])c1)c1ccccc1O` (stereo not drawn) the GI50 (XF498) was > 100 µM (inactive), the GI50 (LXFL 529) was > 100 µM (inactive) and the GI50 (KM-20L2) was > 100 µM (inactive).
In the case of `O=C(Nc1ccc([N+](=O)[O-])cc1[N+](=O)[O-])C(=O)C(C(=O)c1ccc2ccccc2c1)C1OC(=O)c2ccccc21` (stereo not drawn), the GI50 (DMS-273) is reported as 10.2 µM (inactive), the GI50 (RXF 631) is reported as 16.6 µM (inactive) and the GI50 (LXFL 529) is reported as 10.5 µM (inactive). The GI50 (KM-20L2) was 25.1 µM (inactive) and the GI50 (DLD-1) was 27.5 µM (inactive).
For `CCCCCCCCCCCCCCCCOCC(COP(=O)([O-])OCC[N+](C)(C)C)OCCCCCCCCCCCCCCCC` (stereo not drawn), the GI50 (DMS-273) was > 100 µM (inactive), the GI50 (XF498) was > 100 µM (inactive) and the GI50 (KM-20L2) was > 100 µM (inactive). For the same compound, the GI50 (DLD-1) was > 100 µM (inactive) and the GI50 (HOP-18) was > 100 µM (inactive).
`CC(=O)Nc1ccc(C2=N/C(=C\c3ccc(Cl)c(Cl)c3)C(=O)O2)cc1` was tested, and the GI50 (DMS-273) was 80.4 µM (inactive), the GI50 (XF498) was 57.5 µM (inactive) and the GI50 (RXF 631) was > 100 µM (inactive). For the same compound, the GI50 (LXFL 529) was > 100 µM (inactive), the GI50 (KM-20L2) was > 100 µM (inactive) and the GI50 (DLD-1) was 64 µM (inactive). The GI50 (HOP-18) was > 100 µM (inactive).
For `Cc1ccc(S(=O)(=O)NNC2Oc3cc4c(cc3C(c3ccccc3O)C2C)OCO4)cc1` (stereo not drawn), the GI50 (BT-549) was 13 µM (inactive).
In the case of `NC(CCOCCP(=O)(O)CCC1C=CC=CC1)C(=O)O` (stereo not drawn), the GI50 (BT-549) is reported as > 100 µM (inactive).
In the case of `COc1ccccc1N1C(Cl)C(=O)C1c1c[nH]c2ccccc12` (stereo not drawn), the GI50 (XF498) is reported as > 100 µM (inactive), the GI50 (LXFL 529) is reported as > 100 µM (inactive) and the GI50 (KM-20L2) is reported as > 100 µM (inactive).
For `Cc1c2[nH]c3ccc(Br)cc3c2c(C)c2nccc(O)c12`, the GI50 (DMS-273) was 12.2 µM (inactive), the GI50 (XF498) was 16.1 µM (inactive) and the GI50 (DLD-1) was 27.9 µM (inactive). The GI50 (786-0) was 11.1 µM (inactive) and the GI50 (HOP-18) was 10.8 µM (inactive).
`CN(c1ccccc1)c1c(-c2ccccc2)c(=O)oc2c1ccc1occc12` was tested, and the GI50 (DMS-273) was > 100 µM (inactive), the GI50 (DLD-1) was > 100 µM (inactive) and the GI50 (HOP-18) was > 100 µM (inactive).
With `C=C1C(=O)OC2/C=C(\C)CC/C=C(/C)CC(OC(=O)/C(=C/CO)CO)C12` (stereo not drawn) the GI50 (786-0) was 23.6 µM (inactive) and the GI50 (BT-549) was 14.3 µM (inactive).
In the case of `O=C1CC2(CCC(O)(c3ccco3)C(C(=O)c3ccco3)C2)C(=O)c2ccccc2N1` (stereo not drawn), the GI50 (BT-549) is reported as 92 µM (inactive).
With `NC1C2C=CC(C2)C1C(=O)O` (stereo not drawn) the GI50 (786-0) was > 100 µM (inactive) and the GI50 (BT-549) was > 100 µM (inactive).
For `CC(=O)O[C@H]1[C@@H](OC(C)=O)C(C)(C)/C=C/[C@H](C)C(=O)[C@@]2(OC(C)=O)C[C@@](C)(OC(C)=O)[C@H](OC(C)=O)[C@@H]2[C@H]2OC(=O)CC[C@@]2(OC(=O)c2ccccc2)[C@@H]1OCC(C)C`, the GI50 (BT-549) was 67.6 µM (inactive).
In the case of `O=C1C=CC2(O[C@@H](Cc3ccccc3)[C@H](Cc3ccccc3)O2)C(SC(=O)c2ccccc2)C1` (stereo partly drawn), the GI50 (786-0) is reported as 0.152 µM (active) and the GI50 (BT-549) is reported as 0.34 µM (active).
For `O=C1N[C@@H]([C@H](CCCCCO)OC(=O)c2ccccc2)CO1`, the GI50 (786-0) was > 100 µM (inactive) and the GI50 (BT-549) was > 100 µM (inactive).
With `COc1cc2c(cc1Oc1c(Oc3c(O)c(OC)cc4c3C(CC(C)C)N(C)CC4)c(OC)cc3c1C(CC(C)C)N(C)CC3)C(CC(C)C)N(C)CC2` (stereo not drawn) the GI50 (DMS-273) was 1.18 µM (inactive), the GI50 (KM-20L2) was 0.698 µM (active) and the GI50 (DLD-1) was 1.76 µM (inactive). For the same compound, the GI50 (HOP-18) was 1.67 µM (inactive).
With `CCN(CC)c1c(C)c(C(=O)OC)nn1-c1ccccc1` the GI50 (DMS-273) was > 100 µM (inactive), the GI50 (XF498) was > 34.5 µM (inactive) and the GI50 (KM-20L2) was > 100 µM (inactive). For the same compound, the GI50 (DLD-1) was > 100 µM (inactive) and the GI50 (HOP-18) was > 100 µM (inactive).
In the case of `C=C1CC(OC)(C(O)C(=O)N[C@H]2OCO[C@H]3C2O[C@H](C[C@@H](CO)OC)C(C)(C)C3OC)O[C@H](C)[C@@H]1C` (stereo partly drawn), the GI50 (DMS-273) is reported as < 0.00931 µM (active), the GI50 (XF498) is reported as < 0.00931 µM (active) and the GI50 (KM-20L2) is reported as < 0.00931 µM (active). The GI50 (DLD-1) was < 0.00931 µM (active) and the GI50 (HOP-18) was < 0.00931 µM (active).
In the case of `O=C1C(=O)c2cc([N+](=O)[O-])ccc2-c2ccc([N+](=O)[O-])cc21`, the GI50 (DMS-273) is reported as 0.397 µM (active), the GI50 (XF498) is reported as 1.23 µM (inactive) and the GI50 (KM-20L2) is reported as 4.88 µM (inactive). The GI50 (DLD-1) was 1.64 µM (inactive) and the GI50 (HOP-18) was 1.71 µM (inactive).
In the case of `Cn1c(=O)nc2n(-c3ccc(Cl)cc3Cl)c3ccccc3nc-2c1=O`, the GI50 (XF498) is reported as 0.262 µM (active), the GI50 (KM-20L2) is reported as 0.861 µM (active) and the GI50 (DLD-1) is reported as 3.29 µM (inactive). The GI50 (HOP-18) was 11 µM (inactive).
`Nc1c(C(=O)Nc2ccc(C3=NCCN3)cc2)cccc1C(=O)Nc1ccc(C2=NCCN2)cc1` was tested, and the GI50 (DMS-273) was > 100 µM (inactive), the GI50 (XF498) was > 100 µM (inactive) and the GI50 (KM-20L2) was > 100 µM (inactive). The GI50 (DLD-1) was > 100 µM (inactive) and the GI50 (HOP-18) was > 100 µM (inactive).
